The structures appear in SMILES notation.

The test system of one data set is Lactuca sativa. Nature of the data set: Inhibition of Lactuca sativa (lettuce) seed germination assessed as elongation of root by measuring germination rate (reference value: 75%). It is filed as functional.
Data set [1] in a line: Toxicity in Artemia salina (brine shrimp) assessed as death rate after 1.5 days (reference value: 5%). It counts as organism-based. Conditions: in vivo, read-out: Activity.

Turning to `O=C1C=C[C@@H]2O[C@H](c3ccccc3)[C@H](O)[C@@H]2O1` [(+)-ISOALTHOLACTONE], in the data set on Lactuca sativa, the “inhibition (INH)” value came to 25%. Besides, in data set [1], the mortality at 36 h was 13%.
Take `O=C1C=C[C@H]2O[C@@H](c3ccccc3)[C@H](O)[C@H]2O1` [ENT-ALTHOLACTONE]: in the data set with Lactuca sativa, the “inhibition (INH)” value is listed as 5%. Besides, in data set [1], the mortality at 36 h worked out at 31%.
The matching figures for `O=C1C=C[C@@H]2O[C@H](c3ccccc3)[C@@H](O)[C@@H]2O1` [ALTHOLACTONE]: 50% and 40%.
In the case of `O=C1C=C[C@H]2O[C@H](c3ccccc3)[C@@H](O)[C@@H]2O1`, in the data set with Lactuca sativa, the “inhibition (INH)” value amounted to 63%. The mortality at 36 h in data set [1] was determined as 48%.
On to `O=C1C=C[C@H]2O[C@H](c3ccccc3)[C@@H](O)[C@H]2O1` [ENT-ISOALTHOLACTONE], for which the “inhibition (INH)” value in the data set on Lactuca sativa was determined as 69%. Further, the mortality at 36 h in data set [1] came out at 8%.
Taken in the same sequence, the figures for `O=C1C=C[C@H]2O[C@H](c3ccccc3)[C@H](O)[C@@H]2O1` were 56% and 31%.

For the origin of these results see ChEMBL document CHEMBL3045764, “Synthesis of Both Enantiomers of Altholactone, Isoaltholactone and 5-Hydroxygoniothalamin from Tri-O-acetyl-D-glucal, and Their Biological Activities” (J Pestic Sci, 2001).
